According to ChEMBL document CHEMBL4382262, “Structurally Simple, Readily Available Peptidomimetic 1-Benzyl-5-methyl-4-( n-octylamino)pyrimidin-2(1 H)-one Exhibited Efficient Cardioprotection in a Myocardial Ischemia (MI) Mouse Model” (J Med Chem, 2018):
The source made the active and inactive calls. The calls are words filed in the database; no cut-off is given here.

Tests used:
[1] = target: T1, Toll-like receptor 4 (Rattus norvegicus) (UniProt Q9QX05); experiment: Inhibition of TLR4 in Sprague-Dawley rat cardiomyocytes assessed as reduction in hypoxia-induced creatine kinase levels at 20 uM preincubated for 1 hr followed by induction of hypoxia measured after 3 hrs by NADP reduction based colorimetric analysis; assay type: cell-based
T1 sequence (whole entry): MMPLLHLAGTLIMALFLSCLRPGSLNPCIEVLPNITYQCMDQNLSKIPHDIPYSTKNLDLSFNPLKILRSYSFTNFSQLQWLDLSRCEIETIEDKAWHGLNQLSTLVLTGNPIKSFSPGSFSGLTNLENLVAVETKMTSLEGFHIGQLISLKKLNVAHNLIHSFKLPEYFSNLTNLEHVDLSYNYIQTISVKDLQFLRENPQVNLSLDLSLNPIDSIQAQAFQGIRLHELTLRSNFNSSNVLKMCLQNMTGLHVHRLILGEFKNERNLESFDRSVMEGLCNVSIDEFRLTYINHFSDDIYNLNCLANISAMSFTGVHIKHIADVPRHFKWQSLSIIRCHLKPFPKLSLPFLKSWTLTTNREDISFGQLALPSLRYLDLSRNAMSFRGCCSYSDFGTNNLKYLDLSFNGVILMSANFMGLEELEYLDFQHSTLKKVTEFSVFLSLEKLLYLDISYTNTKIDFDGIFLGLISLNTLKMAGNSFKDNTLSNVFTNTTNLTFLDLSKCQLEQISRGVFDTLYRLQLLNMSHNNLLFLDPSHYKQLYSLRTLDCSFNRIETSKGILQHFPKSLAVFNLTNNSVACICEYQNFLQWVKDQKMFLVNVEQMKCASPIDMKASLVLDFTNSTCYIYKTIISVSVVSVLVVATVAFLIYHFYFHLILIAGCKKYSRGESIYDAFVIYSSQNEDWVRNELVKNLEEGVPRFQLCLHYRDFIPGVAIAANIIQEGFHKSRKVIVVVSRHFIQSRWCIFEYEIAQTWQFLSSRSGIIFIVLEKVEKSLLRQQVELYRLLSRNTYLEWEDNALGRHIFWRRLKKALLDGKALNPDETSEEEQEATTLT

[2] = target: T1, Toll-like receptor 4 (Rattus norvegicus); experiment: Inhibition of TLR4 in Sprague-Dawley rat cardiomyocytes assessed as reduction in hypoxia-induced creatine kinase levels at 10 uM preincubated for 1 hr followed by hypoxia for 3 hrs by NADP reduction based colorimetric analysis; assay type: cell-based
[3] = target: T1, Toll-like receptor 4 (Rattus norvegicus); experiment: Inhibition of TLR4 in Sprague-Dawley rat cardiomyocytes assessed as reduction in hypoxia-induced LDH release at 20 uM preincubated for 1 hr followed by hypoxia for 3 hrs by NADH detection based colorimetric analysis; assay type: cell-based
[4] = target: T1, Toll-like receptor 4 (Rattus norvegicus); experiment: Inhibition of TLR4 in Sprague-Dawley rat cardiomyocytes assessed as reduction in hypoxia-induced TRAM protein expression at 20 uM preincubated for 1 hr followed by hypoxia for 3 hrs by Western blot analysis relative to untreated control; assay type: cell-based
[5] = Reduction in hypoxia-induced TLR4 mRNA expression in Sprague-Dawley rat cardiomyocytes at 20 uM preincubated for 1 hr followed by hypoxia for 3 hrs by RT-qPCR analysis relative to untreated control; assay type: functional, Cardiac muscle cell
Mus musculus [6] = experiment: Cardioprotective activity in C57BL mouse model of left anterior descending coronary artery ligation-induced myocardial ischemia assessed as reduction in serum LDH levels at 0.3 mg/kg, iv treated for 1 hr after by left anterior descending coronary artery ligation and measured after 24 hrs post LAD; assay type: functional, organism-based
Mus musculus [7] = experiment: Cardioprotective activity in C57BL mouse model of left anterior descending coronary artery ligation-induced myocardial ischemia assessed as survival rate at 0.3 mg/kg, iv treated 1 hr after left anterior descending coronary artery ligation and measured after 7 days post LAD; assay type: functional
[8] = target: T1, Toll-like receptor 4 (Rattus norvegicus); experiment: Inhibition of TLR4 in hypoxia-induced Sprague-Dawley rat cardiomyocytes assessed as increase in IkappaB-alpha protein expression at 20 uM preincubated for 1 hr followed by hypoxia for 3 hrs by Western blot analysis relative to untreated control
[9] = Reduction in hypoxia-induced TLR4 protein expression in Sprague-Dawley rat cardiomyocytes at 20 uM preincubated for 1 hr followed by hypoxia for 3 hrs by Western blot analysis relative to untreated control; assay type: functional, Cardiac muscle cell
[10] = target: T1, Toll-like receptor 4 (Rattus norvegicus); experiment: Inhibition of TLR4 in Sprague-Dawley rat cardiomyocytes assessed as reduction in hypoxia-induced LDH levels by measuring NADH levels at 20 uM preincubated for 1 hr followed by induction of hypoxia measured after 3 hrs by colorimetric analysis; assay type: cell-based

CCCCCCCCNc1nc(=O)n(Cc2ccccc2)cc1C
inhibition [1]: Active
inhibition [2]: Active
inhibition [3]: Active
fold change (FC) [4]: 2.8
fold change (FC) [5]: 3.1
Activity (Mus musculus [6]): Active
survival at 0.3 mg/kg (Mus musculus [7]): 100%
fold change (FC) [8]: 3.3
fold change (FC) [9]: 2.7
inhibition [10]: Active
